Each structure is given as a SMILES string.

T1 sequence (P35372 whole entry): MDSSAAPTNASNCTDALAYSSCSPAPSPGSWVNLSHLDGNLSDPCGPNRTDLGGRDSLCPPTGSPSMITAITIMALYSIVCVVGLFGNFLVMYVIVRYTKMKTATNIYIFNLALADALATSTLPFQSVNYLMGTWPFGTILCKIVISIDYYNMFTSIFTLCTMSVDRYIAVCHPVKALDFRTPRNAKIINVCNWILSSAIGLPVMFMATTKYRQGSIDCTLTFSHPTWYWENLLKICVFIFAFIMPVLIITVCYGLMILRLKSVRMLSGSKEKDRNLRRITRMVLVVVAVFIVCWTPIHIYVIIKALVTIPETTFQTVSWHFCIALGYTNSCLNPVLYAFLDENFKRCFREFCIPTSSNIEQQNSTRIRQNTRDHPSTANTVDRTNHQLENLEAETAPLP

The first assay addresses T1, human μ-opiate receptor (Homo sapiens, UniProt P35372).
T1 construct: purchased PerkinElmer Life Sciences, Zaventem, Belgium RB-HOM; host or cells: CHO-K1 cells (recombinant expression; membrane preparation)
As to the kind of experiment: Affinity for the human μ-opiate receptor ([3H]-naloxone displacement, SPA). The conditions noted are these: Table 1, aldehydes; test substance 1 μmole/l; inhibition of specific [3H]-naloxone binding; CHO-K1 membranes; read-out: μ-Opioid receptor, % inhibition [1 μM]. On the procedure: Investigations on the Efficacy of the Compounds According to the Invention Method for Determining the Affinity for the Human μ-Opiate Receptor
The receptor affinity for the human μ-opiate receptor is determined in a homogeneous batch in microtiter plates. For this purpose dilution series of the substances to be tested are incubated with a receptor membrane preparation (15-40 μg protein/250 μl incubation batch) of CHO-K1 cells, which express the human μ-opiate receptor (RB-HOM receptor membrane preparation from PerkinElmer Life Sciences, Zaventem, Belgium), in the presence of 1 nmole/l of the radioactive ligand [^3H]-naloxone (NET719, PerkinElmer Life Sciences company, Zaventem, Belgium) and 1 mg WGA-SPA beads (wheat germ agglutinin SPA beads from Amersham/Pharmacia, Freiburg, Germany) in a total volume of 250 μl for 90 minutes at room temperature. 50 mmole/l of Tris-HCl supplemented with 0.06% bovine serum albumin is used as incubation buffer. In order to determine the non-specific binding, 100 μmole/l of naloxone is additionally added. After the end of the 90 minutes' incubation time the microtiter plates are centrifuged for 20 minutes at 1000 g and the radioactivity is measured in a beta counter (Microbeta-Trilux, PerkinElmer Wallac, Freiburg, Germany). The percentage displacement of the radioactive ligand from its binding to the human μ-opiate receptor at a concentration of the test substances of 1 μmole/l is determined and is given as percentage inhibition of the specific binding.
With `CN(C)C(c1ccc(Cl)cc1)C1CCC(C=O)CC1` (centres unmarked) [Example 9c, 4-[(4-chlorophenyl)-dimethylaminomethyl]-cyclohexane-carbaldehyde], the inhibition at 1 µM came out at 45%.
With `CN(C)C(c1cccs1)C1CCC(C=O)CC1` (centres unmarked) [Example 9d, 4-(dimethylaminothiophen-2-yl-methyl)-cyclohexane carbaldehyde], the inhibition at 1 µM worked out at 69%.
Still for that read-out and setting: next, `CN(C)C(c1cccc(F)c1)C1CCC(CC=O)CC1` (centres unmarked) [Example 10b, {4-[dimethylamino-(3-fluorophenyl)-methyl]-cyclohexyl}-acetaldehyde]: 67%; `CN(C)C(c1ccc(Cl)cc1)C1CCC(CC=O)CC1` (centres unmarked) [Example 10c, {4-[(4-Chlorophenyl)-dimethylaminomethyl]-cyclohexyl}-acetaldehyde]: 50%.
With `CN(C)C(c1cccs1)C1CCC(CC=O)CC1` (centres unmarked) [Example 10d, {4-[dimethylamino-thiophen-2-yl-methyl]-cyclohexyl}-acetaldehyde], the inhibition at 1 µM turned out to be 79%.

The same assay, now with this note: Table 2, Examples 11-161; test substance 1 μmole/l; inhibition of specific [3H]-naloxone binding; CHO-K1 membranes; read-out: μ-Opioid receptor, % inhibition [1 μM].
Regarding `COC(=O)C1(CC(C)C)N=CN(C2CCCCC2)C1C1CCC(C(c2cccc(F)c2)N(C)C)CC1` (centres unmarked) [Example 11, 1-cyclohexyl-5-{4-[dimethylamino-(3-fluorophenyl)-methyl]-cyclohexyl}-4-isobutyl-4,5-dihydro-1H-imidazole-4-carboxylic acid methyl ester], the inhibition at 1 µM amounted to 84%.
Turning to `COC(=O)C1(Cc2ccc(Cl)cc2)N=CN(C2CCCCC2)C1C1CCC(C(c2cccc(F)c2)N(C)C)CC1` (centres unmarked) [Example 12, 4-(4-chlorobenzyl)-1-cyclohexyl-5-{4-[dimethylamino-(3-fluorophenyl)-methyl]-cyclohexyl}-4,5-dihydro-1H-imidazole-4-carboxylic acid methyl ester], the inhibition at 1 µM was found to be 73%.
Regarding `CCCCC1(C(=O)OC)N=CN(C2CCCCC2)C1C1CCC(C(c2cccc(F)c2)N(C)C)CC1` (centres unmarked) [Example 13, 4-butyl-1-cyclohexyl-5-{4-[dimethylamino-(3-fluorophenyl)-methyl]-cyclohexyl}-4,5-dihydro-1H-imidazole-4-carboxylic acid methyl ester], the inhibition at 1 µM was 94%.
The same measure, in the same setting: next, `COC(=O)C1(CC(C)C)N=CN(C2CCCCC2)C1C1CCC(C(c2ccc(Cl)cc2)N(C)C)CC1` (centres unmarked) [Example 14, 5-{4-[(4-chlorophenyl)-dimethylaminomethyl]-cyclohexyl}-1-cyclohexyl-4-isobutyl-4,5-dihydro-1H-imidazole-4-carboxylic acid methyl ester]: 92%; `COC(=O)C1(Cc2ccc(Cl)cc2)N=CN(C2CCCCC2)C1C1CCC(C(c2ccc(Cl)cc2)N(C)C)CC1` (centres unmarked) [Example 15, 4-(4-chlorobenzyl)-5-{4-[(4-chlorophenyl)-dimethylaminomethyl]-cyclohexyl}-1-cyclohexyl-4,5-dihydro-1H-imidazole-4-carboxylic acid methyl ester]: 76%.
Same read-out and setting: the figure for `CCCCC1(C(=O)OC)N=CN(C2CCCCC2)C1C1CCC(C(c2ccc(Cl)cc2)N(C)C)CC1` (centres unmarked) [Example 16, 4-butyl-5-{4-[(4-chlorophenyl)-dimethylaminomethyl]-cyclohexyl}-1-cyclohexyl-4,5-dihydro-1H-imidazole-4-carboxylic acid methyl ester] is 92%; for `COC(=O)C1(CC(C)C)N=CN(C2CCCCC2)C1CC1CCC(C(c2ccc(Cl)cc2)N(C)C)CC1` (centres unmarked) [Example 17, 5-{4-[(4-chlorophenyl)-dimethylaminomethyl]-cyclohexylmethyl}-1-cyclohexyl-4-isobutyl-4,5-dihydro-1H-imidazole-4-carboxylic acid methyl ester] it is 96%.
As for `COC(=O)C1(Cc2ccc(Cl)cc2)N=CN(C2CCCCC2)C1CC1CCC(C(c2ccc(Cl)cc2)N(C)C)CC1` (centres unmarked) [Example 18, 4-(4-chlorobenzyl)-5-{4-[(4-chlorophenyl)-dimethylaminomethyl]-cyclohexylmethyl}-1-cyclohexyl-4,5-dihydro-1H-imidazole-4-carboxylic acid methyl ester], the inhibition at 1 µM amounted to 90%.
On the same count and under the same terms, next, `CCCCC1(C(=O)OC)N=CN(C2CCCCC2)C1CC1CCC(C(c2ccc(Cl)cc2)N(C)C)CC1` (centres unmarked) [Example 19, 4-butyl-5-{4-[(4-chlorophenyl)-dimethylaminomethyl]-cyclohexylmethyl}-1-cyclohexyl-4,5-dihydro-1H-imidazole-4-carboxylic acid methyl ester]: 96%.
For the compound `COC(=O)C1(Cc2ccc(Cl)cc2)N=CN(C2CCCCC2)C1CC1CCC(C(c2cccs2)N(C)C)CC1` (centres unmarked) [Example 20, 4-(4-chlorobenzyl)-1-cyclohexyl-5-[4-(dimethylamino-thiophen-2-yl-methyl)-cyclohexylmethyl]-4,5-dihydro-1H-imidazole-4-carboxylic acid methyl ester], the inhibition at 1 µM amounted to 95%.
As for `CCCN1C=NC(CC(C)C)(C(=O)OC)C1C1CCC(C(c2cccc(F)c2)N(C)C)CC1` (centres unmarked) [Example 21, 5-{4-[dimethylamino-(3-fluorophenyl)-methyl]-cyclohexyl}-4-isobutyl-1-propyl-4,5-dihydro-1H-imidazole-4-carboxylic acid methyl ester], the inhibition at 1 µM turned out to be 83%.
As for `CCCN1C=NC(Cc2ccc(Cl)cc2)(C(=O)OC)C1C1CCC(C(c2cccc(F)c2)N(C)C)CC1` (centres unmarked) [Example 22, 4-(4-chlorobenzyl)-5-{4-[dimethylamino-(3-fluorophenyl)-methyl]-cyclohexyl}-1-propyl-4,5-dihydro-1H-imidazole-4-carboxylic acid methyl ester], the inhibition at 1 µM amounted to 88%.
In the case of `CCCCC1(C(=O)OC)N=CN(CCC)C1C1CCC(C(c2cccc(F)c2)N(C)C)CC1` (centres unmarked) [Example 23, 4-butyl-5-{4-[dimethylamino-(3-fluorophenyl)-methyl]-cyclohexyl}-1-propyl-4,5-dihydro-1H-imidazole-4-carboxylic acid methyl ester], the inhibition at 1 µM turned out to be 76%.
Still for that read-out and setting: next, `CCCN1C=NC(CC(C)C)(C(=O)OC)C1C1CCC(C(c2ccc(Cl)cc2)N(C)C)CC1` (centres unmarked) [Example 24, 5-{4-[(4-chlorophenyl)-dimethylaminomethyl]-cyclohexyl}-4-isobutyl-1-propyl-4,5-dihydro-1H-imidazole-4-carboxylic acid methyl ester]: 89%; `CCCN1C=NC(Cc2ccc(Cl)cc2)(C(=O)OC)C1C1CCC(C(c2ccc(Cl)cc2)N(C)C)CC1` (centres unmarked) [Example 25, 4-(4-chlorobenzyl)-5-{4-[(4-chlorophenyl)-dimethylaminomethyl]-cyclohexyl}-1-propyl-4,5-dihydro-1H-imidazole-4-carboxylic acid methyl ester]: 83%; `CCCN1C=NC(CC(C)C)(C(=O)OC)C1CC1CCC(C(c2ccc(Cl)cc2)N(C)C)CC1` (centres unmarked) [Example 26, 5-{4-[(4-chlorophenyl)-dimethylaminomethyl]-cyclohexylmethyl}-4-isobutyl-1-propyl-4,5-dihydro-1H-imidazole-4-carboxylic acid methyl ester]: 96%.
For `CCCN1C=NC(Cc2ccc(Cl)cc2)(C(=O)OC)C1CC1CCC(C(c2ccc(Cl)cc2)N(C)C)CC1` (centres unmarked) [Example 27, 4-(4-chlorobenzyl)-5-{4-[(4-chlorophenyl)-dimethylaminomethyl]-cyclohexylmethyl}-1-propyl-4,5-dihydro-1H-imidazole-4-carboxylic acid methyl ester], the inhibition at 1 µM stood at 96%.
Take `CCCCC1(C(=O)OC)N=CN(CCC)C1CC1CCC(C(c2ccc(Cl)cc2)N(C)C)CC1` (centres unmarked) [Example 28, 4-butyl-5-{4-[(4-chlorophenyl)-dimethylaminomethyl]-cyclohexylmethyl}-1-propyl-4,5-dihydro-1H-imidazole-4-carboxylic acid methyl ester]: the inhibition at 1 µM stood at 97%.
For the compound `CCCCN1C=NC(CC(C)C)(C(=O)OC)C1C1CCC(C(c2cccc(F)c2)N(C)C)CC1` (centres unmarked) [Example 29, 1-butyl-5-{4-[dimethylamino-(3-fluorophenyl)-methyl]-cyclohexyl}-4-isobutyl-4,5-dihydro-1H-imidazole-4-carboxylic acid methyl ester], the inhibition at 1 µM was found to be 89%.
With `CCCCN1C=NC(Cc2ccc(Cl)cc2)(C(=O)OC)C1C1CCC(C(c2cccc(F)c2)N(C)C)CC1` (centres unmarked) [Example 30, 1-butyl-4-(4-chlorobenzyl)-5-{4-[dimethylamino-(3-fluorophenyl)-methyl]-cyclohexyl}-4,5-dihydro-1H-imidazole-4-carboxylic acid methyl ester], the inhibition at 1 µM was found to be 89%.
Take `CCCCN1C=NC(CC(C)C)(C(=O)OC)C1C1CCC(C(c2ccc(Cl)cc2)N(C)C)CC1` (centres unmarked) [Example 31, 1-butyl-5-{4-[(4-chlorophenyl)-dimethylaminomethyl]-cyclohexyl}-4-isobutyl-4,5-dihydro-1H-imidazole-4-carboxylic acid methyl ester]: the inhibition at 1 µM is 91%.
